Test system: Plasmodium falciparum
Assay: GSK_TCMDC: Inhibition of Plasmodium falciparum 3D7 in whole erythrocytes, using parasite LDH activity as an index of growth.
Format: functional, organism-based
Settings: Plasmodium falciparum, 3D7

Compound	XC50
COc1ccc(Nc2nc(N/N=C/c3ccc(-c4ccc([N+](=O)[O-])cc4)o3)nc(Nc3ccccc3)n2)cc1	761 nM
Cc1ccc(Nc2nc(N/N=C/c3ccccc3[N+](=O)[O-])nc(Nc3ccc([N+](=O)[O-])cc3)n2)cc1C	692 nM
CC(C)N(Cc1ccc(-c2ccc(C(F)(F)F)cc2)cc1)C(=O)Cn1c(CCc2cccc(F)c2F)cc(=O)c2ccc(CCCN3CCCCC3)cc21	736 nM
O=C(Cn1c(CCc2cccc(F)c2F)cc(=O)c2ccccc21)N(CCN1CCCCC1)Cc1ccc(-c2ccc(C(F)(F)F)cc2)cc1	764 nM
Nc1nc(N)c2c(Oc3cccc(Cl)c3)cccc2n1	471 nM
O=C(/C=C/c1ccc(Cl)c(Cl)c1)NCCCCCN1CCCN(C(=O)Nc2ccc(Cl)c(Cl)c2)CC1	864 nM
Cc1cnccc1/C=C/c1cccc(OCCCN2CCc3ccc(S(C)(=O)=O)cc3CC2)c1	615 nM
FC(F)(F)c1ccc2[nH]c(-c3ccc(-c4cccc(CNCCc5cccnc5)c4)s3)nc2c1	170 nM
O=C(NC1CCN(Cc2ccc3c(c2)OCCO3)CC1)c1ccc(-c2cccc(Cl)c2)s1	1910 nM
CCCCC(O)c1cc(O)c2c(c1)OC(C)(C)CC2C1=CCN(Cc2ccc3ccccc3c2)CC1 (stereo unspecified)	970 nM
CC(C)COc1ccc(Cl)cc1Cc1ccc(-c2nc3ccc(F)c(F)c3[nH]2)o1	942 nM
COc1ccc(N2CCN(CCCCNC(=O)c3ccc(NC(=O)c4cc(C(F)(F)F)cc(C(F)(F)F)c4)cc3)CC2)cc1OC	221 nM
N=C1c2ccccc2CN1CC(=O)c1ccc(Cl)c(Cl)c1	728 nM
N=C(N)NCCCCN(Cc1ccccc1)c1ccccc1	745 nM
O=C(Nc1cccc(C(F)(F)F)c1)Nc1ccc2nonc2c1	849 nM
CCCCCCN1CCCN(Cc2cccc(C(=O)Nc3ccc(C(C)(C)C)cc3)c2)CC1	943 nM
Cc1noc(C)c1-c1ccc2c(Nc3nccc4ccccc34)c(C(N)=O)cnc2c1	895 nM
COc1ccc(C=NN=c2cc(C)[nH]c3ccccc23)cc1OC	859 nM
CN1CCN(C(C(=O)NCc2cc(Cl)cc(Cl)c2)c2ccc(Nc3cccc(C(F)(F)F)c3)cc2)CC1 (stereo unspecified)	1120 nM
COc1ccc2nccc([C@@H](O)CN3CCC(NC(=O)c4ccc(CN5CCN(c6cccc(C)c6)CC5C)cc4)CC3)c2c1 (stereo partly specified)	211 nM
CCCCCCc1c(C)nc2cc(OC)ccc2c1O	119 nM
CCCc1ccccc1OCC(O)CN(C1CCCC1)C1CCCC1 (stereo unspecified)	470 nM
Cc1nc(C)c(-c2ccc(Oc3ccc(Cl)cc3)c(Cl)c2)c(O)c1Br	495 nM
CCc1ccccc1N=C1c2c(cccc2[N+](=O)[O-])C(=O)C1C(C)=O (stereo unspecified)	90.9 nM

Compound	XC50
COc1ccc(NC(=O)[C@H](CC(C)C)Nc2cc(C)nc(NCCc3ccccc3)n2)cc1	888 nM
COc1cccc(C(=O)Nc2ccc(Nc3nc(C)cc(N4CCCCC4)n3)cc2)c1OC	1020 nM
Cc1cc(CN2CCC(N3CC(c4ccccc4)(c4ccccc4)OCC3=O)C2)ccc1O (stereo unspecified)	1080 nM
CCNc1cc(C(=O)N[C@@H](Cc2ccccc2)[C@H](O)CNC2(CC)CC2)cc(N2CCCCS2(=O)=O)c1	1610 nM
CC[C@H](C)[C@@H](C(=O)N1CCOCC1)N1CC[C@H](NS(=O)(=O)CC(C)(C)c2ccc(Cl)cc2)C1=O	550 nM
O=C(NCc1ccc(Cl)c(Cl)c1)c1ccc(-c2nc3cc(F)c(F)cc3[nH]2)cc1	1050 nM
Cc1cc(C)cc(OCC(O)CN(Cc2cc(Cl)cc(Cl)c2)C(=O)Nc2ccc([N+](=O)[O-])cc2)c1 (stereo unspecified)	804 nM
COc1ccc2nccc([C@@H](O)CN3CCC(NCc4cc5cc(C)ccc5s4)CC3)c2c1	636 nM
CN1CCN(C(=O)CN2CCC3(CCC2=O)NC(=O)c2ccccc2O3)CC1 (stereo unspecified)	213 nM
COc1ccc(C2CC(c3cccs3)=NN2C(=O)COc2cccc3c2CCCC3O)cc1OC (stereo unspecified)	1150 nM
Cn1c(NC(=O)C2CCC(CNC(=O)c3ccc(O)c(-c4ccc(Cl)c(Cl)c4)c3)CC2)nc2ccccc21 (stereo unspecified)	654 nM
CCCCCn1c(Sc2ccc(C#N)c([N+](=O)[O-])c2)nnc1-c1ccccc1	860 nM
CCCNC(=O)Nc1cc2cc(-c3ccc(CN4CCCC4)cc3)ccc2n2c(C)nnc12	1500 nM
NC1=NC(c2ccccc2)N(c2ccccc2)C(N)=N1 (stereo unspecified)	294 nM
COc1cc2nc(N3CCC(NC(=O)c4cccc(N(C)C)c4)CC3)nc(N)c2cc1OC	614 nM
Cc1nc(N)nc(N)c1OCc1ccc(Cl)c(Cl)c1	131 nM
c1ccc2c(c1)ncc1c3ccccc3[nH]c21	866 nM
CC(C)(C)NC(=O)COC(=O)c1c2c(nc3ccccc13)C(=Cc1ccc3c(c1)OCO3)CCC2	735 nM
O=C(/C=C/c1ccc(Cl)c(Cl)c1)NCCCCCN1CCCC(CNS(=O)(=O)c2ccc(F)cc2)C1 (stereo unspecified)	1160 nM
Cc1nc2c(Nc3nc(-c4ccncc4)cs3)ncnc2n1-c1ccccc1Cl	176 nM
COc1cccc(-c2nc3c(N4CCN(c5ccncc5)CC4)cccc3n2CC2CCCCCN2)n1 (stereo unspecified)	1060 nM
COc1ccc(CN2CCC(CNCc3cccc(-c4ccccc4)c3)CC2)cc1	236 nM
COC(=O)c1ccc(Nc2nccc(Nc3ccc(Oc4ccccc4)cc3)n2)cc1	1020 nM
CCOc1ccc(-c2n[nH]c(C(F)(F)F)c2-c2ccccc2OC)c(O)c1	1140 nM

Compound	XC50
CCC(ON1C(N)=NC(N)=NC1(C)C)c1ccc(Cl)cc1 (stereo unspecified)	3.2 nM
CCc1c(CCNCCCCCCNCCc2ccc(OC)cc2)ccc(OC)c1OC	871 nM
CCCNC[C@@H](O)[C@H](Cc1ccccc1)NC(=O)c1cc(NCC)cc(N2CCCC2=O)c1	760 nM
COc1ccc2nccc([C@@H](O)CN3CCC(NCCOc4ccc(F)cc4[N+](=O)[O-])CC3)c2c1	116 nM
Cn1cncc1C(=O)Nc1cccc(-c2ccc(-c3nc4ccccc4[nH]3)cc2)c1	854 nM
Cc1cccc2nc(-c3cccc(-c4ccc(NC(=O)c5ccc(=O)[nH]n5)cc4)c3)[nH]c12	857 nM
O=C(Nc1cccc(F)c1)N1CCC(CN2CCOC(c3ccccc3)(c3ccccc3)C2)CC1	198 nM
CCCCCCCc1c(C)nc2cccc(OC)c2c1O	1130 nM
CC(C)c1ccc(CN(C)CCCCNC(=O)c2ccc(NC(=O)c3ccc(Cl)cc3)cc2)cc1	994 nM
Cc1cccc2nc(-c3cccc(-c4ccc(CNCc5cccc(N)c5)cc4)c3)[nH]c12	260 nM
COc1ccc2nccc([C@@H](O)CN3CCC(NC(=O)c4ccc(OC)c(N)c4)CC3)c2c1	715 nM
Cc1cccc(C)c1/N=C1\NC(=S)N(c2cccc(Cl)c2)C12CCC(C(C)(C)C)CC2 (stereo unspecified)	760 nM
COc1cc2nc(N3CCC(CNC(=O)c4ccc(-c5ccc(O)cc5)cc4)CC3)nc(N)c2cc1OC	175 nM
N#Cc1ccc(-c2ccc(C(=O)NCCCCN3CCC(c4cc(Br)c5c(c4O)CCCC5)CC3)cc2)cc1	154 nM
Cc1c[nH]c2cc(/C=C/C(=O)NC3CCC(CCN4CCc5ccc(C#N)cc5CC4)CC3)ccc12 (stereo unspecified)	801 nM
O=C(NC1CCN(Cc2ccccc2)CC1)c1ccc(CNC2CCN(Cc3ccccc3)CC2)cc1	872 nM
CC(C)N1CCN(C(CN2CCN(CCCOc3cccc4ccccc34)CC2)c2ccc(F)cc2)CC1 (stereo unspecified)	879 nM
CCOc1ccc(C2CCN(CCCCNC(=O)c3ccc(NC(=O)c4ccc(Cl)cc4)cc3)CC2)c(Cl)c1	731 nM
COc1ccc(Cn2c(Nc3cccc(C(F)(F)F)c3)nc3cc(C(=O)NCCCN(C)C)ccc32)cc1Cl	913 nM
C[C@@H](Oc1cc(-n2cnc3ccc(NC(=O)CCN4CCCCC4)cc32)sc1C(N)=O)c1ccccc1Cl	991 nM
Nc1ncc(-c2ccsc2)cc1-c1nc2ccccc2[nH]1	851 nM
CC(C)CCN1CCCN(Cc2cccc(NC(=O)c3ccc(-c4ccccc4)cc3)c2)CC1	888 nM
Nc1nccc2ccc(-c3ccc4ncccc4c3)cc12	112 nM
Cc1c(CNCCCNc2nc3ccccc3[nH]2)[nH]c2cc(Cl)cc(Cl)c12	232 nM

Compound	XC50
CCNC(=O)N1CCc2ccc(Oc3nc(NCc4ccccc4OC)ncc3C)cc2CC1	1070 nM
CC[C@H]1CN2CC[C@@H]1C[C@H]2[C@H](O)c1cc(-c2ccc(F)cc2)nc2ccc(O)cc12	140 nM
CCN(CCCN1CCCCC1)c1cc(C)nc(Nc2ccc(C)c(Cl)c2)n1	207 nM
Cn1ncc2ccc(Nc3nccc(-c4ccc5c(c4)c(N)nn5C)n3)cc21	648 nM
CC(C)CNCc1cccc(-c2cccc(CN(C(=O)Nc3ccccc3)C3CCN(Cc4ccccc4)CC3)c2)c1	369 nM
COc1ccc2nccc([C@@H](O)CN3CCC(NC(=O)Cn4nc(-c5ccc(C(F)(F)F)cc5)ccc4=O)CC3)c2c1	737 nM
CC(Oc1ccc(C(=O)c2ccc(F)cc2)cc1)C(=O)N1CCc2ccccc21 (stereo unspecified)	413 nM
OC1(Cc2ccccc2)CCN(Cc2cccc(-c3c[nH]c4nc(NC5CCCC5)ncc34)c2)CC1	929 nM
COc1ccc(NC(=O)Nc2ccc(-c3cccc(-c4nc5ccccc5[nH]4)c3)cc2)cc1	764 nM
COc1cccc(-c2cccc(NC(=O)C3CCN(Cc4ccc(O)cc4)CC3)c2)c1	1030 nM
Cc1cccc2nc(-c3cccc(-c4cccc(CNCCc5cccn5C)c4)c3)[nH]c12	733 nM
COc1cccc(C(=O)NCCc2cccc(Cl)c2)c1Oc1ccccc1	844 nM
CC(=O)N1N=C(c2[nH]c3ccc(Br)cc3c2C)OC1c1ccccc1 (stereo unspecified)	777 nM
O=c1cc(NCCCNC2CCCc3c2cc(Cl)c(Cl)c3Cl)[nH]c2ccccc12 (stereo unspecified)	276 nM
COc1ccc2ncc(Cl)c(CCN3CCC(NCc4ccc5c(n4)NC(=O)CO5)CC3)c2c1	470 nM
CN(C)C(CNC(=O)c1cc(-c2ccncc2)c(-c2ccc(Cl)c(O)c2)o1)c1ccccc1 (stereo unspecified)	843 nM
CCOc1ncccc1CN1CCC(N2CCc3cc(NC(=O)c4ccco4)ccc32)C1 (stereo unspecified)	758 nM
CN(C)C(CNC(=O)c1cc(-c2ccncc2)c(-c2ccc(NC(=O)Nc3cccc(Cl)c3)cc2)o1)c1ccccc1 (stereo unspecified)	183 nM
O=[N+]([O-])c1ccc(C2=NN(S(=O)(=O)c3c(Cl)cc(Cl)cc3Cl)CCCC2)cc1	125 nM
COc1c(C2CCN(CCCCNC(=O)c3cc(-c4ccc(Cl)cc4)[nH]c3C)CC2)ccc2c1CCCC2	970 nM
Cc1cc(N2Cc3ccccc3C2)nc(Nc2ccc(S(=O)(=O)N3CCOCC3)cc2)n1	1110 nM
COc1cc2c(cc1C(F)(F)F)N(C(=O)Nc1cc(F)c(F)c(-c3cccnc3)c1)CC2	626 nM
Cc1cc(N(C)C)nc(Nc2ccc(NC(=O)c3c(F)cccc3Cl)cc2)n1	1090 nM
COc1cc(CCN(C)Cc2ccc(OC)c(OC)c2)ccc1NC(=O)c1cccc2c(O)c3cccc(F)c3nc12	203 nM

Source: ChEMBL document CHEMBL1157539, “Thousands of chemical starting points for antimalarial lead identification” (Nature, 2010)
